Values quoted from earlier work as cited in US7148216B2, “Combinations of drugs for the treatment of neoplastic disorders” (CombinatoRx, Inc., priority 2000, dated 2006).
Where two headings read alike, the source gives them in different places.

- solubility (in ether, acetone, and chloroform): insoluble
- solubility (in water and glycerin): soluble
SMILES: N=C(N)c1ccc(OCCCCCOc2ccc(C(=N)N)cc2)cc1 [pentamidine isethionate, 4,4′-diamidino-diphenoxypentane di(β-hydroxyethanesulfonate)]
